pKd: −log10 of the molar value.
What was measured:
[1] = molecular target: ΔN28-CofB; assay: Isothermal titration calorimetry, interaction with ΔN28-CofB; type: binding, enterotoxigenic Escherichia coli (ETEC); conditions: ITC; for pKd: 25° C., 20 mM Tris-HCl (pH 8.0), 150 mM NaCl, ΔN28-CofB in terms of trimer, read-out: dissociation constant Kd value; for binding affinity to ΔN28-CofB compared with the binding affinity between CofJ and ΔN28-CofB: stronger than CofJ
Procedure: The expression and purification methods were carried out according to past papers (Fukakusa, S, et al. Acta Cryst. 2012, D68, 1418-1429; Kawahara, K, et al. J. Mol. Biol, 2016, 428, 1209-1226).
Interaction analysis was performed using CofB, CofJ and ΔN24-CofJ prepared by the above methods. An isothermal titration calorimeter Microcal iTC 200 (manufactured by GE Healthcare) was used for analysis of the interaction between the secretory protein CofJ and ΔN28-CofB. A 0.59 mM CofJ solution was charged in a titration syringe and a 28.5 μM (in terms of trimer) ΔN28-CofB solution was charged in a measuring cell, respectively, and the interaction of them was evaluated by directly observing heat changes that occur upon dropping the CofJ solution into the ΔN28-CofB solution. Titration conditions were such that the initial dropping amount was 1 μL, the dropping amount at the second and subsequent times was 2 μL, and dropping was performed 20 times in total every 120 seconds. The measurement temperature was 25° C., and the solvent was 20 mM Tris-HCl (pH 8.0), 150 mM NaCl. An exothermic change was observed by dropping the CofJ solution, which converged to the same level as the heat of dilution as the titration progressed. As a result of analysis of the obtained data using an analysis software Origin (Microcal), binding of CofJ and ΔN28-CofB was observed. The dissociation constant Kd value of both was 0.2 μM.
Next, in order to investigate the contribution to binding to pili in the N-terminal region (1 to 24) of the secretory protein CofJ, analysis of the interaction between ΔN24-CofJ and ΔN28-CofB was carried out using an isothermal titration calorimeter Microcal iTC 200 (manufactured by GE Healthcare). A 0.59 mM ΔN24-CofJ solution was charged in a titration syringe and a 28.5 μM (in terms of trimer) ΔN28-CofB solution was charged in a measuring cell, respectively, and the interaction of them was evaluated by directly observing heat changes that occur upon dropping the ΔN24-CofJ solution into the ΔN28-CofB solution. No change in caloric value due to dropping of the ΔN24-CofJ solution was observed.
Furthermore, in order to investigate the contribution to binding to pili in the N-terminal region (1 to 24) of the secretory protein CofJ, analysis of the interaction between a synthetic peptide consisting of 24 amino acid residues at the N terminal of CofJ (CofJ^1-24 peptide) purchased from Scrum Co., Ltd. and ΔN28-CofB was carried out using an isothermal titration calorimeter Microcal iTC200 (manufactured by GE Healthcare) in the same manner as described above. A 2 mM CofJ^1-24 peptide solution was charged in a titration syringe and a 33.9 μM (in terms of trimer) ΔN28-CofB solution was charged in a measuring cell, respectively, and the interaction of them was evaluated by directly observing heat changes that occur upon dropping the CofJ^1-24 peptide solution into the ΔN28-CofB solution. An exothermic change was observed by dropping the CofJ^1-24 peptide solution, which converged to the same level as the heat of dilution as the titration progressed. As a result of analysis of the obtained data using an analysis software Origin, binding of the CofJ^1-24 peptide and ΔN28-CofB was observed. The dissociation constant Kd value of both was 4 μM.
Next, in order to investigate the binding specificity of the CofJ^1-24 peptide, analysis of the interaction between a synthetic random peptide (CofJpepR) purchased from Scrum Co., Ltd. and ΔN28-CofB was carried out using an isothermal titration calorimeter Microcal iTC 200 (manufactured by GE Healthcare). A 2 mM random peptide solution was charged in a titration syringe and a 28.5 μM (in terms of trimer) ΔN28-CofB solution was charged in a measuring cell, respectively, and the interaction of them was evaluated by directly observing heat changes that occur upon dropping the […] into the ΔN28-CofB solution. No change in caloric value due to dropping of the random peptide solution was observed. […]

[2] = system: binding of CofJ and Trx-His-ΔN28-CofB; assay: Pull down assay using a Ni column, inhibition of CofB/CofJ binding; parameters: species or system enterotoxigenic Escherichia coli (ETEC); conditions: SDS-PAGE
Source text: To examine whether the CofJ^1-24-GCN4 inhibitory peptide is capable of inhibiting the binding of CofB and CofJ, it was confirmed in the in vitro experiment system by pull down assay using a Ni column. For experiments, ΔN28-CofB (Trx-His-ΔN28-CofB), CofJ, CofJ^1-24-GCN4, a CofJ^1-24 peptide and a peptide (CofJpepR) in which the amino acid sequence of the CofJ^1-24 peptide was randomized, with added thioredoxin tag (Trx) and His tag, were used. The sequence of CofJpepR is […] (SEQ ID NO: 22).
(§1) Solutions mixed so that the concentration of Trx-His-ΔN28-CofB was 1 μM and the concentration of CofJ^1-24-GCN4 was (0, 0.5, 1.0, 2.0, 5.0, 10.0 μM) were allowed to stand still on ice overnight. Further, CofJ was mixed so that the final concentration became 1 μM, and the mixtures were allowed to stand still on ice for 1 hour, to obtain experiment samples. Each sample was applied to a Ni column equilibrated with 20 mM Tris-HCl, 150 mM NaCl, pH 8.0, and the column was washed with 20 mM Tris-HCl, 150 mM NaCl, 15 mM Imidazole, pH 8.0. Thereafter, elution was performed with 20 mM Tris-HCl, 150 mM NaCl, 300 mM Imidazole, pH 8.0, and the eluted fraction was confirmed by SDS-PAGE.
Also for the CofJ^1-24 peptide and CofJpepR, the inhibition ability thereof was investigated by the same method. Specifically, solutions mixed so that the concentration of Trx-His-ΔN28-CofB was 1 μM and the concentration of the CofJ^1-24 peptide and CofJpepR was 1000 μM were allowed to stand still on ice overnight. Further, CofJ was mixed so that the final concentration became 1 μM, and the mixtures were allowed to stand still on ice for 1 hour, to obtain experiment samples. The pull down assay was performed in the same manner as described above. […] From this, it is considered that CofJ^1-24-GCN4 can inhibit the binding between CofB and CofJ by strongly binding with CofB by trimerizing.
In order to investigate whether the CofJ^4-16-GCN4 inhibitory peptide can inhibit the binding of CofB and CofJ, it was confirmed in the in vitro experimental system by a pull down assay using a Ni column. For the experiment, ΔN28-CofB (Trx-His-ΔN28-CofB), CofJ and CofJ^4-16-GCN4, with added thioredoxin tag (Trx) and His tag (His), were used.
as §1, with “CofJ^4-16-GCN4” for “CofJ^1-24-GCN4”, “Thereafter, elution was performed with 20 mM Tris-HCl, 150 mM NaCl, 300 mM Imidazole, pH 8.0, and the eluted fraction was confirmed by SDS-PAGE.” left out

[3] = system: HB101 cof adhesion to Caco2 cells; assay: ETEC adhesion inhibitory activity using Caco2 cells; type: cell-based, Escherichia coli; conditions: 1, 10, 100 μg/mL
Procedure: First, Caco2 cells were dispersed using Dulbecco's Modified Eagle's Medium (DMEM) containing 50 μg/mL gentamicin and 10% fetal bovine serum, the cell concentration was measured using a blood cell counting chamber and diluted to 3.0×10^5 cells/mL. Dilution liquid was added to a 6-well plate each in an amount of 500 μL, and culture was performed by allowing the plate to stand still in a CO2 incubator at 5% CO2 and 37° C. for 48 hours. The cultured Caco2 cells were washed with PBS twice. After washing, DMEM containing 100 μg/mL ampicillin and 1% D-mannose was filtrated by passing through a 0.22 μm filter, then, the solution was added each in an amount of 500 μL to each well.
Next, a small amount of the glycerol stock of HB101 cof was scraped off and added to LB medium containing 100 μg/mL ampicillin, and shaking culture was carried out overnight at 25° C. The culture liquid was suitably diluted and OD660 of the culture liquid was calculated using a turbidimeter. The culture liquid was serially diluted and CFU (colony forming unit) was measured. From the measured CFU, the concentration (cells/mL) of HB101 cof at OD660=1.0 was calculated. This calculated value was used to determine the concentration of HB101 cof later. […]
ETEC adhesion inhibitory activity was evaluated in the same manner as in Example 9 using CofJ^4-16-GCN4. […]

[4] = peptide premixed at a concentration not lower than that of CofJ (1 μM), 0.5-10.0 μM tested
[5] = peptide 1000 μM (1000 times that of CofJ, 1 μM)

With “CofJ^1-24-GCN4: GPLG, CofJ 1-24 sequence (SEQ ID NO: 1), linker TSGGG (SEQ ID NO: 9) and GCN4 sequence (SEQ ID NO: 6); expressed in E. coli” the pKd [1] was 7.40, the “binding affinity to ΔN28-CofB compared with the binding affinity between CofJ and ΔN28-CofB” value [1] was “about 5 times” and the “inhibition of the binding of CofJ and Trx-His-ΔN28-CofB” value [2, 4] was “strongly inhibited”. The “inhibition of colonization of HB101 cof to Caco2 cells” value [3] was “inhibits colonization of HB101 cof to Caco2 cells in concentration-dependent manner”.
For “CofJ^4-16-GCN4: GPLG, SSEGGAFTVNMPK (SEQ ID NO: 23), linker TSGGG (SEQ ID NO: 9) and GCN4 sequence (SEQ ID NO: 6); expressed in E. coli”, the pKd [1] was 7.10, the “binding affinity to ΔN28-CofB compared with the binding affinity between CofJ and ΔN28-CofB” value [1] was “about 2.5 times” and the “inhibition of the binding of CofJ and Trx-His-ΔN28-CofB” value [2, 4] was “strongly inhibited”. For the same substance, the “inhibition of colonization of HB101 cof to Caco2 cells” value [3] was “inhibits colonization of HB101 cof to Caco2 cells in concentration-dependent manner”.
“NPSGFDKSGSSTTRTPAMSVIVDE [CofJpepR, reference compound]” was tested, and the “binding to ΔN28-CofB (change in caloric value)” value ([1]; 28.5 μM ΔN28-CofB in cell) was “do not bind” and the “inhibition of the binding of CofJ and Trx-His-ΔN28-CofB” value [2, 5] was “can not be inhibited at all”.
With “SPSSSEGGAFTVNMPKTSTVDDIR [CofJ^1-24 peptide, reference compound]” the pKd [1] was 5.40 and the “inhibition of the binding of CofJ and Trx-His-ΔN28-CofB” value [2, 5] was “hardly inhibited”.
With “SSEGGAFTVNMPK [CofJ^4-16 peptide, reference compound]” the pKd [1] was 5.40.

Reference: patent US10829522B2, “Peptide inhibiting colonization by pathogenic bacteria, and colonization inhibitor including same” (OSAKA UNIVERSITY, priority 2016, dated 2020)
